Test results from patent US3988466A, “Prevention of gastric lesions” (priority 1973, dated 1976).
Values joined by “and” are separate entries in the source; they are usually repeats but may differ in a detail not shown here. Equal values may be shown once. “Also recorded” adds a separate entry of the source. Read-outs that look alike come from different tables or passages of the source.

Experiments:
[1] = test system: aspirin-induced gastric lesions in pylorus-ligated rats; assay: Effect of various amino acids on aspirin-induced gastric lesions in pylorus-ligated rats (Experiment 3); type: in vivo, male Donryu strain rats
[2] = pH of amino acids in 1% carboxymethylcellulose solution; type: physicochemical; conditions: 150 mg/ml in 1% carboxymethylcellulose solution
Method: The pH values of the amino acids are also determined. The amino acids are separately dissolved or suspended in 1% carboxymethylcellulose solution at a concentration of 150 mg/ml and the pH is measured on an Hitachi pH meter (product of Hitachi Ltd., Japan).

[3] = test system: gastric secretion in pylorus-ligated rats; assay: Effect of L-glutamine on gastric secretion in pylorus-ligated rats (Experiment 4); type: in vivo, male Donryu strain rats
Method: In this Experiment, 7 groups of male Donryu strain rats are used. After 24 hours of fasting, the pylorus of the animal is ligated in the same manner as described in Experiment 1. Six groups are treated in the same manner as described in Experiment 1 except for the injection of the solution of pontamine sky blue 6BX in saline. A seventh group (normal) is treated twice with 5 ml/kg of 1% carboxymethylcellulose solution.
After 7 hours of pylorus ligation, the animals are killed and the stomach is removed. The gastric juice is collected and the volume is measured. The gastric juice is titrated to pH 7.4 with 0.1N NaOH using an electromatic pH meter. The concentration of pepsin in the gastric juice is also determined according to Anson's hemoglobin method [Anson, M. L., J. Gen. Physiol.

[4] = test system: yeast-induced fever in rats; assay: Effect of L-glutamine on antipyretic activity of aspirin in rats (Experiment B); type: in vivo, male Wistar strain rats; conditions: aspirin 200 mg/kg oral
Method: In this Experiment, male Wistar strain rats weighing about 90-100 g are treated with 2.5 ml/rat of a suspension of yeast (Brewers Yeast, product of Nutritional Biochem. Co., U.S.A.) in physiological saline (concentration: 250 mg/ml), by subcutaneous injection in the back, according to the method of Gleen et al [Gleen, E. M. et al: J. Pharma. Exp. Therp., 155, 157 (1967)]. The animals are then fasted. The animals showing an increased rectal temperature of 38° C or more after 17 hours are selected for use in experiment. […] As a control, one group is treated with 105 ml of 1% carboxymethylcellulose solution alone. After the treatment, the rectal temperature is measured at the time indicated.

[5] = test system: acetic acid-induced writhing response in mice; assay: Effect of L-glutamine on analgesic activity of aspirin in mice (Experiment C); type: in vivo, male dd strain mice; conditions: aspirin 300 mg/kg oral; writhings in 10 minutes
Method: In this Experiment, 3 groups of male dd strain mice weighing 19-21 g are used.
As a control, the third group is treated only with 1% carboxymethylcellulose solution. After a control period of one hour, the animals are treated with 0.2 ml of 0.7% acetic acid solution in physiological saline by intraperitoneal injection, according to the method of Koster et al. [Koster, R. et al: Fed. Proc., 18, 412 (1959)]. Starting 10 minutes after the administration of acetic acid, the number of writhing reaction occurred in 10 minutes is counted.

[6] = Rattus norvegicus, po; read-out: Inhibition
[7] = amino acid 750 mg/kg oral; aspirin by gastric intubation
[8] = Rattus norvegicus, po, read-out: Inhibition
[9] = Control group: aspirin 100 mg/kg without L-glutamine, 7 hours

| Compound | Amino acid pH [2] | inhibition in vivo at 750 mg/kg [1, 6] | Ulcer index [1, 7] | effect on aspirin-induced gastric lesions (in words) ([1]; amino acid 750 mg/kg oral) | other results |
| --- | --- | --- | --- | --- | --- |
| NC(Cc1c[nH]c2ccccc12)C(=O)O (racemic) [DL-tryptophan] | 8.27 | 39.2% | 27.4±4.3 mm |  |  |
| C[C@H](N)C(=O)O [L-alanine] | 6.45 | 85.1% | 6.7±1.5 mm |  |  |
| N=C(N)NCCC[C@H](N)C(=O)O [L-arginine] | 11.00 |  | 0.9±0.5 mm | prevent the aspirin-induced gastric lesions almost completely; also recorded: best preventive effect | inhibition in vivo at 750 mg/kg [1, 8]: 98% |
| N[C@@H](CSSC[C@H](N)C(=O)O)C(=O)O [L-cystine] | 6.62 | 7.8% | 41.6±3.9 mm | no appreciable effect |  |
| N[C@@H](CCC(=O)O)C(=O)O [L-glutamic acid] | 3.45 | 79.8% | 9.1±2.6 mm | good effect |  |
| O=C(O)[C@@H]1C[C@@H](O)CN1 [L-hydroxyproline] | 7.86 |  | 12.8±2.6 mm | effective for the prevention of the gastric lesions with high significance | inhibition in vivo at 750 mg/kg [1, 8]: 71.6% |
| CC(C)C[C@H](N)C(=O)O [L-leucine] | 7.15 | 80.5% | 8.8±2.8 mm |  |  |
| NCCCC[C@H](N)C(=O)O [L-lysine] | 10.26 |  | 0.4±0.2 mm | prevent the aspirin-induced gastric lesions almost completely; also recorded: best preventive effect | inhibition in vivo at 750 mg/kg [1, 8]: 99.1% |
| CSCC[C@H](N)C(=O)O [L-methionine] | 6.09 | 71.2% | 13.0±3.3 mm | effective for the prevention of the gastric lesions with high significance |  |
| N[C@@H](Cc1ccccc1)C(=O)O [L-phenylalanine] | 6.26 | 52.3% | 21.5±3.7 mm | significant inhibition of the lesions |  |
| N[C@@H](CO)C(=O)O [L-serine] | 6.11 | 93.3% | 3.0±1.0 mm |  |  |
| N[C@@H](Cc1ccc(O)cc1)C(=O)O [L-tyrosine] | 7.52 and 7.25 |  | 39.3±3.0 mm | no appreciable effect; also recorded: no significant effect | inhibition in vivo at 750 mg/kg [1, 8]: 12.9% |
| CC(C)[C@H](N)C(=O)O [L-valine] | 6.80 | 91.8% | 3.7±1.3 mm |  |  |
| CC(=O)Oc1ccccc1C(=O)O [aspirin, reference compound] |  |  |  |  | Gastric juice volume [3, 9]: 12.5 ± 0.5 mL; Pepsin concentration [3, 9]: 31.8 ± 1.0 mg/mL; Titrable acidity [3, 9]: 65.1±5.7 mEq/L; concentration of pepsin (in words) ([3]; administration of aspirin): increased; effect on acid output (in words) ([3]; aspirin itself): considerably reduces the titrable acidity and acid output; effect on titrable acidity (in words) ([3]; aspirin itself): considerably reduces the titrable acidity; effect on volume of gastric juice (in words) ([3]; aspirin itself): does not affect the volume of gastric juice; Rectal temperature ([4]; 0 hour): 38.4±0.1 °C; Rectal temperature ([4]; 1 hour): 37.9±0.1 °C; Rectal temperature ([4]; 2 hours): 36.7±0.2 °C; Rectal temperature ([4]; 4 hours): 36.6±0.1 °C; Rectal temperature ([4]; 6 hours): 36.9±0.2 °C; Writhing response number [5]: 10±1 |
| NCC(=O)O [glycine] | 6.12 |  | 6.4±1.7 mm |  | inhibition in vivo at 750 mg/kg [1, 8]: 85.8% |

Further lines, with some results ahead:

| Amino acid pH [2] | Compound | inhibition in vivo at 750 mg/kg [1, 6] | Ulcer index [1, 7] | effect on aspirin-induced gastric lesions (in words) ([1]; amino acid 750 mg/kg oral) | other results |
| --- | --- | --- | --- | --- | --- |
| 5.51 | NC(=O)CC[C@@H](N)C(=O)O [D-glutamine] | 82.9% | 7.7±1.8 mm |  |  |
| 5.80 | NC(=O)C[C@H](N)C(=O)O [L-asparagine] | 77.8% | 10.0±2.2 mm |  |  |
| 3.33 | N[C@@H](CC(=O)O)C(=O)O [L-aspartic acid] | 17.3% | 37.3±6.9 mm | no appreciable effect; also recorded: no significant effect |  |
| 5.81 | N[C@@H](CS)C(=O)O [L-cysteine] | 10.2% | 40.5±7.6 mm | no appreciable effect |  |
| 7.86 | N[C@@H](Cc1c[nH]cn1)C(=O)O [L-histidine] | 95.3% | 2.1±0.8 mm |  |  |
| 6.60 | CC[C@H](C)[C@H](N)C(=O)O [L-isoleucine] | 72.6% | 11.9±2.3 mm | effective for the prevention of the gastric lesions with high significance |  |
| 6.32 | O=C(O)[C@@H]1CCCN1 [L-proline] | 77.6% | 10.1±2.3 mm |  |  |
| 6.26 | C[C@@H](O)[C@H](N)C(=O)O [L-threonine] | 89.6% | 4.7±1.1 mm |  |  |
